Measurements reported in ChEMBL document CHEMBL1152294, “Identification of KD5170: a novel mercaptoketone-based histone deacetylase inhibitor” (Bioorg Med Chem Lett, 2008).
≈ marks a conversion by molar mass, not a printed value. Calls of active or inactive are those of the source. The rule behind the calls is not given here.

What was measured:
Cytochrome P450 3A4 = Cytochrome P450 3A4 (Homo sapiens, UniProt P08684); test: Inhibition of CYP3A4; type: ADME
[1] = biological target: Voltage-gated inwardly rectifying potassium channel KCNH2 (Homo sapiens, UniProt Q12809); test: Inhibition of human ERG by patch-clamp assay
Sequence of Voltage-gated inwardly rectifying potassium channel KCNH2 (Q12809 whole entry): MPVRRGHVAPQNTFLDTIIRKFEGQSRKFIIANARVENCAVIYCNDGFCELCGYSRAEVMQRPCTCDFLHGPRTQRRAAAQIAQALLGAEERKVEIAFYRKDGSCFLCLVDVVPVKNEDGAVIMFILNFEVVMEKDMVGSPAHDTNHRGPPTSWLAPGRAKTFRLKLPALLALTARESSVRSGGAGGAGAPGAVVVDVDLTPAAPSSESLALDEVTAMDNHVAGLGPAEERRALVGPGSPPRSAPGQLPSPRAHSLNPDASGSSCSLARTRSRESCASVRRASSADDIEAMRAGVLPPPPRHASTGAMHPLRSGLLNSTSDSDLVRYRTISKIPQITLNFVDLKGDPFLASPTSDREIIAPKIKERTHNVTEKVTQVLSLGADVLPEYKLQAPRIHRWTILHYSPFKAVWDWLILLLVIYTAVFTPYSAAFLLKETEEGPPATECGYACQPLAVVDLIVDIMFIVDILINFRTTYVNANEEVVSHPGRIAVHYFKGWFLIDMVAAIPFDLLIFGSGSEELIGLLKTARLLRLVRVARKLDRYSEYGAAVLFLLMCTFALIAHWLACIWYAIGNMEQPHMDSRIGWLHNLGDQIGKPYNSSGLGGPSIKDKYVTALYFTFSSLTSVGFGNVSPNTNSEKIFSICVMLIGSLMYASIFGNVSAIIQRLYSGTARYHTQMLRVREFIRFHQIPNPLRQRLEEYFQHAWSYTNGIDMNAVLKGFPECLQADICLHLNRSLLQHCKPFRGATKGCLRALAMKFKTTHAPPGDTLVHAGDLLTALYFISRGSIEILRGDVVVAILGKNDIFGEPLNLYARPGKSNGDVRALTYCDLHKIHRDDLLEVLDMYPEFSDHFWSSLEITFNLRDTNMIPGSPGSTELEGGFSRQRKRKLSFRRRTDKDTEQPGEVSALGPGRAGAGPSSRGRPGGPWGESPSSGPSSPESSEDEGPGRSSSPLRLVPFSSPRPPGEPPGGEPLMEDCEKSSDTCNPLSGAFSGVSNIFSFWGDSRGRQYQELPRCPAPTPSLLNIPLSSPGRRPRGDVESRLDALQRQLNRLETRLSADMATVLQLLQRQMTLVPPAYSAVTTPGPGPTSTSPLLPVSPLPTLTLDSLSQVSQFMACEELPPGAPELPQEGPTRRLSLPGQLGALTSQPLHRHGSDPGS

[2] = Aqueous solubility of the compound; type: physicochemical; conditions: buffer
Cytochrome P450 2D6 = Cytochrome P450 2D6 (Homo sapiens, UniProt P10635); test: Inhibition of CYP2D6; type: ADME
Sequence of Cytochrome P450 2D6 (P10635 whole entry): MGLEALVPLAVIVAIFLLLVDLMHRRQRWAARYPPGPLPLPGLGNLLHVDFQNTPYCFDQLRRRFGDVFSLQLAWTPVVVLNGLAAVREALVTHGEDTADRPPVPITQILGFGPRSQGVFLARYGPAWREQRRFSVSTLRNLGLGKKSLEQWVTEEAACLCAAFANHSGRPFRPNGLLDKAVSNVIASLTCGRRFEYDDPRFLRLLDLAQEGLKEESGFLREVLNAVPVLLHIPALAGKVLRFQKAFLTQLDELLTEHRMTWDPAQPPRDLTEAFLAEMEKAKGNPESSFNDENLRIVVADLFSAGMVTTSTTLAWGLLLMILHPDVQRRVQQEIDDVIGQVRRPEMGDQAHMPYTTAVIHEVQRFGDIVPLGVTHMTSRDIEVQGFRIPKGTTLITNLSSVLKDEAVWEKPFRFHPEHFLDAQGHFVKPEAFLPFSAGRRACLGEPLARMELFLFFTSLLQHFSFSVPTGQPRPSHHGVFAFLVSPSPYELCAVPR

[3] = (§1) Cytotoxicity against human […] cells; type: functional, cell-based
Histone deacetylase = test: Inhibition of HDAC in human HeLa cells assessed as histone H3 hyperacetylation; type: cell-based
Mus musculus [4] = test: Induction of histone H3 hyperacetylation in human HCT116 cells xenografted in nude mouse at 50 mg/kg, po by immunoblotting relative to control; type: functional, HCT-116
HCT-116 [5] = test: Cytotoxicity against human HCT116 cells; type: functional, cell-based
Cytochrome P450 2C9 = Cytochrome P450 2C9 (Homo sapiens, UniProt P11712); test: Inhibition of CYP2C9; type: ADME
Sequence of Cytochrome P450 2C9 (P11712 whole entry): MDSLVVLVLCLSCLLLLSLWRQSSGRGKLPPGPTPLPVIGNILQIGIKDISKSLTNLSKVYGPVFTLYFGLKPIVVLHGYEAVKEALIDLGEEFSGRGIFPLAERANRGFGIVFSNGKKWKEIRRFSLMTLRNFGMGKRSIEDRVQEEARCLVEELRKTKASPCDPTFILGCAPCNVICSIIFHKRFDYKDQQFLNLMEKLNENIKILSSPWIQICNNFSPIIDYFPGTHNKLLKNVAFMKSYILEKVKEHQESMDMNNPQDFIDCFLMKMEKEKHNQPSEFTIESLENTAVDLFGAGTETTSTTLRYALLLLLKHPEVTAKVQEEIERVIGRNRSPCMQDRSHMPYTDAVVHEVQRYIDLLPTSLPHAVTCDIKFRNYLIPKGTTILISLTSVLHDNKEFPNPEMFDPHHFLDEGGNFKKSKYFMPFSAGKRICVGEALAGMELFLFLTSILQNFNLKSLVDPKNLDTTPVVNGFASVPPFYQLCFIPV

Cytochrome P450 2C19 = Cytochrome P450 2C19 (Homo sapiens, UniProt P33261); test: Inhibition of CYP2C19; type: ADME
Sequence of Cytochrome P450 2C19 (P33261 whole entry): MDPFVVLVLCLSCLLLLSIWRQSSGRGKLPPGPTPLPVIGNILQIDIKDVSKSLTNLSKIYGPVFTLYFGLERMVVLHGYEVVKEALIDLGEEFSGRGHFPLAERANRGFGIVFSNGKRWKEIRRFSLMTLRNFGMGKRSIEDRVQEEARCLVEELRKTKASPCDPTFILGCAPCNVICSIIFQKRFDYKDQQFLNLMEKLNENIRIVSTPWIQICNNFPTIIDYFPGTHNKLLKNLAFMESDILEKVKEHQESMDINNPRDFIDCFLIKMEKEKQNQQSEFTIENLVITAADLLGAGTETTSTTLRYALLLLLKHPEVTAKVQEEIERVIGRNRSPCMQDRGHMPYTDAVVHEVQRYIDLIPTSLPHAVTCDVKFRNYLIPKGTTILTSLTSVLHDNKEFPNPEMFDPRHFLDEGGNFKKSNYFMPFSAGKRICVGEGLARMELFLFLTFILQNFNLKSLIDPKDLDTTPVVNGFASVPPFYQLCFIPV

Cytochrome P450 1A2 = biological target: T1, Cytochrome P450 1A2 (Homo sapiens, UniProt P05177); test: Inhibition of CYP1A2; type: ADME
T1 sequence (P05177 whole entry): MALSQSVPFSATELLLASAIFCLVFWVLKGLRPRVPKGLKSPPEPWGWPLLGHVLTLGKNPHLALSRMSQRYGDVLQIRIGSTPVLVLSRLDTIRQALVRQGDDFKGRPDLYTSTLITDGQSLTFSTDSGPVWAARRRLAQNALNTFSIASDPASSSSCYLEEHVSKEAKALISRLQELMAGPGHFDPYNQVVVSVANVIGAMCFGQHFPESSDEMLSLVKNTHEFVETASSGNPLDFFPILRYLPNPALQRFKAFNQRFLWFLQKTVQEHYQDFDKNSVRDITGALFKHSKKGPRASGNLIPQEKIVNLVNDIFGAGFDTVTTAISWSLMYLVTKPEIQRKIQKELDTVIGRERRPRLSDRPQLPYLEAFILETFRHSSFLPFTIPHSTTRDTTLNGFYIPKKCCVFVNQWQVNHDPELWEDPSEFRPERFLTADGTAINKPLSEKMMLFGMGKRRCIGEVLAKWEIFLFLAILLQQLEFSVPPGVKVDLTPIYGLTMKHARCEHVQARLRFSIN

SK-OV-3 = test: Cytotoxicity against human SKOV3 cells; type: functional, cell-based
HT-29 = test: Cytotoxicity against human HT-29 cells; type: functional, cell-based
[6] = Cytotoxicity against human MJ cells; type: functional, cell-based
786-0 = test: Cytotoxicity against human 786-0 cells; type: functional, cell-based
NCI-H460 = test: Cytotoxicity against human H460 cells; type: functional, cell-based
HL-60 = test: Cytotoxicity against human HL60 cells; type: functional, cell-based
PC-3 = test: Cytotoxicity against human PC3 cells; type: functional, cell-based
HCT-116 [7] = test: Antitumor activity against human HCT116 cells xenografted in nude mouse assessed as tumor growth inhibition at 84 mg/kg, po QOD for 14 days relative to control; type: functional; set-up: scale not given: the % may be the effect or the level left
Mus musculus [8] = test: Induction of histone H3 hyperacetylation in human HCT116 cells xenografted in nude mouse at 42 mg/kg, iv by immunoblotting relative to control; type: functional, HCT-116
MDA-MB-435 = test: Cytotoxicity against human MDA-MB-435 cells; type: functional, cell-based
Mus musculus [9] = test: Induction of histone H3 hyperacetylation in human HCT116 cells xenografted in nude mouse at 42 mg/kg, po by immunoblotting relative to control; type: functional, HCT-116
HCT-116 [10] = test: Antitumor activity against human HCT116 cells xenografted in nude mouse assessed as tumor growth inhibition at 42 mg/kg, po QOD for 14 days relative to control; type: functional; set-up: scale not given: the % may be the effect or the level left
Mus musculus [11] = test: Induction of histone H3 hyperacetylation in human HCT116 cells xenografted in nude mouse at 30 mg/kg, po after 4 hrs by immunoblotting relative to control; type: functional, organism-based; set-up: dose 30 mg/kg; conditions: HCT-116
Mus musculus [12] = test: Induction of histone H3 hyperacetylation in human HCT116 cells xenografted in nude mouse at 30 mg/kg, po after 8 hrs by immunoblotting relative to control; type: functional, organism-based; set-up: dose 30 mg/kg; conditions: HCT-116
U226 = test: as §1; type: functional, cell-based

Sequence of Cytochrome P450 3A4 (P08684 whole entry): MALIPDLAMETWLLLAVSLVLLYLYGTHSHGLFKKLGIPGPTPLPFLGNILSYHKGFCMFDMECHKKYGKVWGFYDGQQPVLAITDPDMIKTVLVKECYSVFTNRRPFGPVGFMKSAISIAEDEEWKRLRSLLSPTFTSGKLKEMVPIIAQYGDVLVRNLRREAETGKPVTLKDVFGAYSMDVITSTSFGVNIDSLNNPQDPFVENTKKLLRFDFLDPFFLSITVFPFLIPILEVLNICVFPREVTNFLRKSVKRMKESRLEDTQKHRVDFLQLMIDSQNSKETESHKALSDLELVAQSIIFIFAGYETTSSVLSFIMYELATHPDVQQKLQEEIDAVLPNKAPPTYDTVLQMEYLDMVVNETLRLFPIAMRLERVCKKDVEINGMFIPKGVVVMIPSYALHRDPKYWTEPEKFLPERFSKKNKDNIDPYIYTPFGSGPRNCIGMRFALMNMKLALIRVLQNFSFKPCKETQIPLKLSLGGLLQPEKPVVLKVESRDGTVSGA

| Structure (SMILES) | EC50 (Histone deacetylase) | EC50 [3] | EC50 (HCT-116 [5]) | further results |
| --- | --- | --- | --- | --- |
| CC(=O)SCC(=O)c1ccc(NS(=O)(=O)c2ccc3c(c2)COOC3)nc1 | 38 nM | 2000 nM | 1200 nM | EC50 (Cytochrome P450 3A4): > 50000 nM; EC50 [1]: > 30000 nM; solubility [2]: 200 µg/mL (≈ 490 µM); EC50 (Cytochrome P450 2D6): > 50000 nM; fold change (FC) (Mus musculus [4]): 5; EC50 (Cytochrome P450 2C9): 10000 nM; EC50 (Cytochrome P450 2C19): > 50000 nM; EC50 (Cytochrome P450 1A2): > 50000 nM |
| COc1cccc(S(=O)(=O)Nc2ccc(C(=O)CSC(C)=O)cn2)c1 | 190 nM | – | 4300 nM | – |
| CC(=O)SCC(=O)c1ccc(NS(=O)(=O)c2ccc(OCc3ccccn3)cc2)nc1 | 220 nM | – | 420 nM | – |
| CC(=O)SCC(=O)c1ccc(NS(=O)(=O)c2ccc(OC3CCN(C)CC3)cc2)nc1 | 44 nM | 300 nM | 180 nM | – |
| CC(=O)SCC(=O)c1ccc(NS(=O)(=O)c2ccc(OCCCN(C)C)cc2)nc1 [listing 2 of 2 here] | – | – | – | Activity (Mus musculus [11]): Active; Activity (Mus musculus [12]): Active |
| CC(=O)SCC(=O)c1ccc(NS(=O)(=O)c2ccc(OCCCc3ccccn3)cc2)nc1 | 220 nM | – | – | – |
| CC(=O)SCC(=O)c1ccc(NS(=O)(=O)c2ccc(OC3CCCN(C)C3)cc2)nc1 (stereo not given) | 110 nM | 1200 nM | 3700 nM | – |
| COc1ccc(S(=O)(=O)Nc2ccc(C(=O)CSC(C)=O)cn2)cc1 | 29 nM | – | 540 nM | – |
| CC(=O)SCC(=O)c1ccc(NS(=O)(=O)c2ccc(OCCc3ccccn3)cc2)nc1 | 190 nM | 9600 nM | 750 nM | – |
| Br.CC(=O)SCC(=O)c1ccc(NS(=O)(=O)c2ccc(OCCCN(C)C)cc2)nc1 | – | – | – | EC50 [1]: > 30000 nM; solubility [2]: 10000 µg/mL; EC50 (Cytochrome P450 2D6): > 50000 nM; EC50 (Cytochrome P450 2C9): > 50000 nM; EC50 (Cytochrome P450 2C19): > 50000 nM; EC50 (Cytochrome P450 1A2): > 50000 nM |
| CC(=O)SCC(=O)c1ccc(NS(=O)(=O)c2ccc(OCCN(C)C)cc2)nc1 | 93 nM | – | 660 nM | Activity (U226): inactive |

Continued, in another order:

| EC50 (Histone deacetylase) | Structure (SMILES) | EC50 [3] | EC50 (HCT-116 [5]) | further results |
| --- | --- | --- | --- | --- |
| 110 nM | CC(=O)SCC(=O)c1ccc(NS(=O)(=O)c2ccc(OCCCO)cc2)nc1 | – | 8600 nM | – |
| 45 nM | CC(=O)SCC(=O)c1ccc(NS(=O)(=O)c2ccc(OCCCN(C)C)cc2)nc1 [listing 1 of 2 here] | 180 nM | 140 nM | EC50 (SK-OV-3): 760 nM; EC50 (HT-29): 1000 nM; EC50 [6]: 170 nM; EC50 (786-0): 590 nM; EC50 (NCI-H460): 230 nM; EC50 (HL-60): 390 nM; EC50 (PC-3): 740 nM; Activity (HCT-116 [7]): 25%; fold change (FC) (Mus musculus [8]): 12; EC50 (MDA-MB-435): 180 nM; fold change (FC) (Mus musculus [9]): 9; Activity (HCT-116 [10]): 44% |
| 29 nM | CC(=O)SCC(=O)c1ccc(NS(=O)(=O)c2ccc(OCCCCN(C)C)cc2)nc1 | 120 nM | 280 nM | – |
| 61 nM | CC(=O)SCC(=O)c1ccc(NS(=O)(=O)c2ccc(OCCCN3CCCC3)cc2)nc1 | 400 nM | 820 nM | – |
| 53 nM | CC(=O)SCC(=O)c1ccc(NS(=O)(=O)c2ccc(OCCCN3CCCCC3)cc2)nc1 | 800 nM | 1000 nM | – |
| 120 nM | COCCCOc1ccc(S(=O)(=O)Nc2ccc(C(=O)CSC(C)=O)cn2)cc1 | 29000 nM | 5300 nM | – |
| 67 nM | CC(=O)SCC(=O)c1ccc(NS(=O)(=O)c2ccc(OCCCN3CCOCC3)cc2)nc1 | 19000 nM | 330 nM | – |
